For data set [1], the system named is mouse adult proliferating hepatocytes. Conditions: U0126 treated mouse adult proliferating hepatocytes. The source says: Total RNA was qualified with Life Technologies Qubit fluorometer (Q32857) and Agilent Bioanalyzer (G2940CA). Total RNA was used to prepare indexed cDNA libraries with the Ligation Mediated Sequencing (LM-Seq) protocol (Hou, Z et al. 2015). Final indexed cDNA libraries were pooled with forty-four uniquely indexed LM-Seq cDNA libraries per lane and sequenced on an Illumina HiSeq 3000.
We derived SHPCs from adult mouse liver and treated them with the MAPK inhibitor U0126.

The test system of data set [2] is ESC-hepatocyte derived SHPCs. The settings on record: SHPC medium, co-cultured with MEFs and U0126; QPCR, FIG. 6. The source says:
We treated the ESC-hepatocyte derived SHPCs in SHPC medium and co-cultured with MEFs and U0126. We FAC sorted the albumin reporter expressing hepatocytes and performed QPCR.

As for `N#CC(=C(/N)Sc1ccccc1N)/C(C#N)=C(\N)Sc1ccccc1N` [U0126], in data set [1] (vehicle 1), the “CYP1A2 gene expression (RNA-Seq)” value came to 78 and the “RARA gene expression (RNA-Seq)” value came out at 5. Besides, the “AHR gene expression (RNA-Seq)” value in data set [1] (vehicle 4) stood at 11. Moreover, the “UGT1A1 gene expression (RNA-Seq)” value in data set [1] (vehicle 6) stood at 54. For the same molecule, in data set [1] (vehicle 15), the “CYP3A16 (human fetal CYP3A4) gene expression (RNA-Seq)” value is listed as 2. In data set [1] (vehicle 28), the “RXRA gene expression (RNA-Seq)” value is listed as 40 and the “UGT1A6A gene expression (RNA-Seq)” value is reported as 189. In addition, the “CYP1A1 gene expression (RNA-Seq)” value in data set [1] (vehicle 36) amounted to 1447. In addition, the “APOH gene expression (RNA-Seq)” value in data set [1] (vehicle 128) is reported as 245. Further, the “HNF4A gene expression (RNA-Seq)” value in data set [1] (vehicle 254) is listed as 340. Further, the “APOB gene expression (RNA-Seq)” value in data set [1] (vehicle 332) is recorded as 567. In addition, in data set [1] (vehicle 496), the “CYP3A11 (human adult CYP3A4) gene expression (RNA-Seq)” value is reported as 563. Moreover, the “Albumin gene expression (RNA-Seq)” value in data set [1] (vehicle 6523) was determined as 11379. In data set [2], the “increase in CYP3A expression” value came to 3 fold and the “increase in albumin expression” value stood at 2 fold.
